Square brackets hold non-standard residues; d marks the D form. Peptide text beside a SMILES is read from it. * marks the point of attachment. Nle = CCCC[C@H](N)C(=O)O; Cbz = O=C(OCc1ccccc1)*

The test system of experiment [1] is MDA-MB231 breast cancer cells. In words: Extracellular matrix invasion of MDA-MB231 cells (Matrigel Invasion Chambers). The note with it: siRNA transfection, 22 hours. Format: cell-based, human. The protocol:
(§1) Cytotoxicity and growth of transfected cells were estimated by a standard assay used for cancer drug screening, through the total amount of TCA-precipitated cell proteins after drug treatment (Likhitwitayawuid, K et al., 1993, J Nat Prod 56:30-38): 200 μl of cell suspension (10^5 cells/ml) were added to each well in a 96-well plate. After incubation at, 37° C., in 5% CO2 (30 minutes to 72 hours depending on the time course chosen), 50 μl 50% trichloroacetic acid was added to each well. After incubation at 4° C. for 1 hour, precipitates were washed with water 4-5 times and air dried overnight. One hundred μl of SRB solution (0.4% sulforhodamine B in 1% acetic acid, filtered before use) was added to each well for 30 minutes. Wells were washed with 1% acetic acid 4-5 times and air dried. Two hundred μl 10 mM Tris base was added to each well. Plates were shaken for 5-10 minutes and OD at 490 nm (OD490) was recorded via ELISA reader. To assay matrix invasion, 300 μl of cell suspension (10^6 cells/mL in serum-free medium) were added to invasion inserts (BioCoat Matrigel Invasion Chambers, Becton Dickinson, Bedford, Mass.) and incubated for 22 hours at 37° C., 5% CO2. Cells were stained with 0.9% crystal violet in 10% ethanol for 20 minutes. Inserts were dipped in water several times and air dried. After removal of the non-invading cells from the interior of the inserts, stained invading cells were lysed in 10% acetic acid and OD595 was determined.
Notch silencing was confirmed by Western blot as described above in Example 15 using commercial goat polyclonal antibodies from Santa Cruz Biotechnology to Notch-1 (C-20, Cat# sc-6014 S). For the Western blot analyses, MDA-MB231 cells were treated with 25 μM IL-X for 48 h or with 0.5, 1 or 2 μM z-Leu-Leu-Nle-CHO for 24 h. Cytotoxicity and matrix invasion assays were performed as described above in Example 15. For the cytotoxicity assays, MDA-MB231 cells were treated with […] IL-X for up to 3 days or with 0-20 μM z-Leu-Leu-Nle-CHO for up to 4 days. […]

The next experiment deals with Notch-1. The experiment is described as follows: Notch-1 siRNA in CaSki cells, Notch-1 and Notch-4 Western blot. In kind it is cell-based, human. On the procedure: The human papilloma virus (HPV)-positive human cervical cancer cell line CaSki was obtained from ATCC (Rockville, Md.) and cultured in DMEM medium with 10% FBS. Double-stranded synthetic 21-mer RNA oligonucleotides (siRNAs) were purchased from Dharmacon (Lafayette, Colo.). […] Sequence specificity was determined by BLAST searches for the uniqueness. Transfection of CaSki human cervical cancer cells with siRNAs (200 nM siRNA oligos/60 mm dish) was performed by using Oligofectamine Transfection Reagents (InVitrogen) according to manufacturer's instructions.
At 24 and 48 hours after transfection with Notch-1 siRNA or scrambled control siRNA, the CaSki cells were assayed for Notch-1 and Notch-4 expression by Western blotting. Immunoblotting was performed using antibodies to Notch-1 (C-20), and Notch-4 (H-225) from Santa Cruz Biotechnology (Santa Cruz, Calif.). Secondary anti-goat, anti-mouse, anti-rabbit and anti-rat antibodies (IgG-HR1) were purchased from Vector Laboratories (Burlingame, Calif.), Santa Cruz Biotechnology and Amersham Biosciences. For Western blot analysis, equal amounts of protein extracted from each sample (30 μg) were loaded into pre-cast 7% NuPAGE Tris-acetate gels or 4-12% NuPAGE Bis-tris gels (Invitrogen). Proteins were separated by SDS-PAGE and transferred to polyvinylidene difluoride membranes (Bio-Rad, Hercules, Calif.) using Invitrogen's buffering system. […]
For orientation: In western blotting, separated proteins are transferred to a membrane and probed.

The next experiment deals with NOXA. The experiment is described as follows: NOXA in whole cell protein extracts of subcutaneous C8161 tumors. In kind it is in vivo, Nude mice. Conditions: 2.5 mg/kg; versus PBS.
Experiment [2] deals with T47D:C42 breast cancer cells. The experiment is described as follows: Cytotoxicity assay in T47D:C42 breast cancer cells. Format: cell-based. Conditions: T47D:C:4:2; T47D:C42 (p53 wild-type, ERα-negative); 48 h; read-out: IC50, cell growth inhibition. On the procedure:
as §1, with “Inserts were dipped in water several times and air dried.” left out, “determined. […]” for “determined.”

Experiment [3] deals with T47D:A18 breast cancer cells. In words: Cytotoxicity assay in T47D:A18 breast cancer cells. In kind it is cell-based. The note with it: T47D:A18 (p53 wild-type, ERα-positive); 48 h; read-out: IC50, cell growth inhibition. On the procedure:
as §1, with “Inserts were dipped in water several times and air dried.” left out, “determined. […]” for “determined.”

Experiment [4] concerns T47D:A18 breast cancer cells. In words: z-Leu-Leu-Nle-CHO plus Paclitaxel, growth inhibition of T47D:A18 cells. Format: cell-based, human. The note with it: 0-0.8 μM with Paclitaxel, 48 h. The protocol: Three different types of breast cancer cells were contacted with varying concentrations of z-Leu-Leu-Nle-CHO (0-0.8 μM) and the mitotic poison Paclitaxel (0.01-1 μM). MDA-MB231 cells were obtained from ATCC (Rockville, Md.). T47D:C42 and T47D:A18 cells were a kind gift of Debra Tonetti (University of Illinois-Chicago). MDA-MB231 cells were cultured in DMEM medium with 10% FBS. T47D:C42 and T47D:A18 cells were propagated in RPMI 1640 with 10% FBS, 100 μM non-essential amino acid and 6 ng/ml insulin. Gamma-secretase inhibitor z-Leu-Leu-Nle-CHO (Calbiochem 565750) was dissolved in DMSO, aliquoted and stored at −80° C. Paclitaxel (Sigma, St. Louis Mo.) was dissolved in DMSO, aliquoted and stored at −80° C.
To determine whether z-Leu-Leu-Nle-CHO treatment potentiates the effect of Paclitaxel on human breast cancer cells, MDA-MB231, T47D:C42 and T47D:A18 cells were treated for 48 h with 0-0.8 μM z-Leu-Leu-Nle-CHO and various concentrations of Paclitaxel (0.008-1 μM) Following the z-Leu-Leu-Nle-CHO and Paclitaxel treatment, the cells were tested for growth inhibition as described above in Example 13.

Experimental for NOXA: Initially, 1×10^6 aggressive melanoma cells (C8161) (ATCC, Rockville, Md.) were injected subcutaneously in Nude (nulnu) mice (6-7 weeks old; Harlan, Indianapolis, Ind.) on day 0, and the tumors were allowed bearing groups (5 mice/group) and injected with either (a) PBS as control; (b) bortezomib at 1.25 mg/kg; or (c) bortezomib at 2.5 mg/kg. Treatment began on day 8 when tumors were palpable and injected four times peri-tumorally. On day 20, mice were euthanized and tumors dissected from surrounding tissue and weighted. […] Expanding the in vitro studies to in vivo studies, subcutaneous tumors produced in Nude mice (as described above in Example 7) were tested to detect NOXA using whole cell protein extracts as described above.

For “5′-AAGTGTCTGAGGCCAGCAAGA-3′ [Notch-1 siRNA]”, the extracellular matrix invasion result in experiment [1] is “significantly inhibited extracellular matrix invasion”. Also, in the experiment with Notch-1 (200 nM siRNA, 24 and 48 hours after transfection), the Notch-1 signaling result was “effective in genetically inhibiting Notch-1 signaling”. In addition, the Notch-4 levels result in the experiment with Notch-1 (data not shown) is “did not effect levels of Notch-4”.

For the molecule `CC(C)C[C@H](NC(=O)[C@H](Cc1ccccc1)NC(=O)c1cnccn1)B(O)O` [bortezomib, N-(2-pyrazine)carbonyl-L-phenylalanine-L-leucine boronic acid], the “NOXA in treated tumors” value in the experiment on NOXA was “did induce NOXA in these treated tumors”.

For the molecule `CCCC[C@@H](C=O)NC(=O)[C@H](CC(C)C)NC(=O)[C@H](CC(C)C)NC(=O)OCc1ccccc1` [z-Leu-Leu-Nle-CHO, N-benzyloxycarbonyl-leucyl-leucyl-norleucinal] (Cbz-Leu-Leu-[Nle]-aldehyde), the IC50 – broadly, the concentration needed to halve the response being measured – in experiment [2] was determined as 380 nM; in experiment [3], 570 nM. Also, in experiment [4], the “effect on Paclitaxel cell growth inhibition” value is given as “potentiated the effects of Paclitaxel on cell growth inhibition”.

The values are drawn from patent US20080220416A1, “Compositions for Inhibiting Cell Growth and Inducing Apoptosis in Cancer Cells and Methods of Use Thereof” (THE BOARD OF TRUSTEES OF THE UNIVERSITY OF ILLINOI, priority 2004, published 2008).
